Assay results from patent US20050209157A1, “Short bioactive peptides and methods for their use” (priority 2001, published 2005).
Converted amounts (≈) assume the structure as drawn. Where two headings read alike, the source gives them in different places. Non-standard residues stand in square brackets, D forms with d. Residues, ends and D or L forms follow the SMILES beside them. No end group written: not given here.

Tests used:
[1] = tested on: S. pyogenes ATCC19615; assay: Antimicrobial assays II, NCCLS broth microdilution MIC; assay type: cell-based, Streptococcus pyogenes; conditions: mean of three, in µg/mL
[2] = tested on: P. acne ATCC 6919; assay: as above; assay type: cell-based, Propionibacterium acnes; conditions: mean of three, in µg/mL
[3] = tested on: S. pneumoniae C719; assay: as above; assay type: cell-based, Streptococcus pneumoniae; conditions: mean of three, in µg/mL
[4] = tested on: S. aureus (MRSA); assay type: cell-based, Staphylococcus aureus; conditions: mean of three; 16 to 20 hours at 35° C.
[5] = tested on: WI38; conditions: MTT, 24 hours with peptide; normal fibroblast line
[6] = in vitro; conditions: human, WI38 normal lung fibroblast cells, LD50 WI38, WI38 normal lung fibroblast line, MTT, 24 hours with peptide
[7] = in vitro; assay type: cell-based, human; conditions: human, human red blood cells, pH 7, hemolytic assay, concentration at 50% hemolysis, 1 hour at 37° C.; read-out: LD50
[8] = tested on: yeast (Saccharomyces cerevisiae); assay: Antimicrobial assay I, yeast assay in RPMI 1640; assay type: cell-based; conditions: RPMI 1640 media
[9] = tested on: S. pyogenes M76; assay: Antimicrobial assays II, NCCLS broth microdilution MIC; assay type: cell-based, Streptococcus pyogenes; conditions: mean of three; 16 to 20 hours at 35° C.
[10] = tested on: Staphylococcus aureus ATCC 6538; assay: Antimicrobial assay I, MIC by OD measurement; assay type: cell-based; conditions: 37° C. for 24 hours, absorbance 620 nm
[11] = tested on: Pseudomonas aeruginosa ATCC 9027; assay: Antimicrobial assay I, MIC by OD measurement; assay type: cell-based; conditions: 37° C. for 24 hours, absorbance 620 nm
[12] = tested on: P. aeruginosa; assay type: cell-based, Pseudomonas aeruginosa; conditions: P. aeruginosa H744; MIC of nalidixic acid with peptide at ¼ MIC
In short: (§1)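 Synergy against efflux-mutant strains: two-fold dilutions of nalidixic acid or chloramphenicol tested with peptide held at ¼ of its MIC.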

[13] = tested on: P. aeruginosa H774; assay type: cell-based, Pseudomonas aeruginosa; conditions: P. aeruginosa H744; nalidixic acid + peptide at ¼ MIC; 0.5 or less = synergy
In short: as §1

[14] = tested on: P. aeruginosa H374; assay type: cell-based, Pseudomonas aeruginosa; conditions: for MIC Cm-comb.: MIC of chloramphenicol with peptide at ¼ MIC; for MIC Nal-comb.: MIC of nalidixic acid with peptide at ¼ MIC; for FIC Index: 0.5 or less = synergy
In short: as §1

[15] = tested on: S. epidermidis C621; assay type: cell-based, Staphylococcus epidermidis; conditions: mean of three; 16 to 20 hours at 35° C.
[16] = tested on: S. pneumoniae C718; assay: Antimicrobial assays II, NCCLS broth microdilution MIC; assay type: cell-based, Streptococcus pneumoniae; conditions: mean of three
[17] = tested on: PC3; assay: Anti-cancer assay, MTT, LD50; assay type: cell-based; conditions: 24 hours with peptide, prostate adenocarcinoma
Excerpt: (§2) Numbers are LD50 values (μg/mL).

[18] = tested on: MCF7; assay: Anti-cancer assay, MTT, LD50; assay type: cell-based; conditions: MCF7 breast adenocarcinoma line, MTT, 24 hours with peptide
Excerpt: as §2

[19] = tested on: BMKC; assay: Anti-cancer assay, MTT, LD50; assay type: cell-based; conditions: BMKC cloned melanoma line, 24 hours with peptide
Excerpt: as §2

[20] = tested on: SW480; assay: Anti-cancer assay, MTT, LD50; assay type: cell-based; conditions: SW480 colon adenocarcinoma line, 24 hours with peptide
Excerpt: as §2

[21] = tested on: H1299; assay: Anti-cancer assay, MTT, LD50; assay type: cell-based; conditions: 24 hours with peptide, lung large cell carcinoma
Excerpt: as §2

[22] = tested on: HeLaS3; assay: Anti-cancer assay, MTT, LD50; assay type: cell-based; conditions: 24 hours with peptide, cervical carcinoma
Excerpt: as §2

[23] = chloramphenicol + peptide at ¼ MIC
[24] = nalidixic acid + peptide at ¼ MIC, FIC=0.25+MIC comb/MIC alone

Compound | S. pyogenes MIC [1] | P. acne MIC [2] | S. pneumoniae MIC [3] | S. aureus (MRSA) MIC [4] [µg/mL] | WI38 LD50 [5] [µg/mL] | CC50 at 24 h [6] [µg/mL] | HC50 at 1 h [7] [µg/mL] | yeast (MIC or MFC) [8] | S. pyogenes M76 MIC [9] [µg/mL] | staph6538 (MIC) [10] [µg/mL] | paerug9027 (MIC) [11] [µg/mL] | MIC Nal-comb. [12] [µg/mL] | FIC Index [13] | MIC Cm-comb. [14] [µg/mL] | MIC Nal-comb. [14] [µg/mL] | FIC Index [14, 23] | FIC Index [14, 24] | S. epidermidis C621 MIC [15] [µg/mL] | S. pneumoniae MIC [16] [µg/mL] | PC3 LD50 [17] [µg/mL] | also measured
FAKLLAKALKKLL-NH2 [P55] | 2 | 4 | 4 | 4 | 32 | 32 | 20 | 25 µg/mL | 4 | 5 | 5 | 624 | 1.25 | 16 | 5000 | 1.25 | 1.25 | 2 | 8 | 47 | LD50 MCF7 [18]: 16 µg/mL; LD50 BMKC [19]: 16 µg/mL; LD50 SW480 [20]: 14 µg/mL; H1299 LD50 [21]: 7 µg/mL; HeLaS3 LD50 [22]: 15 µg/mL
KYKKALKKLAKLL-NH2 [P146] | 8 | 16 | 128 | 16 | 270 | 270 | 180 | 50 µg/mL | 8 | 10 | 10 | 624 | 1.25 | 4 | 625 | 0.5 | 0.375 | 8 | > 128 | 440 | LD50 MCF7 [18]: 110 µg/mL; LD50 BMKC [19]: 185 µg/mL; LD50 SW480 [20]: 380 µg/mL; H1299 LD50 [21]: 93 µg/mL; HeLaS3 LD50 [22]: 640 µg/mL
FALALKALKKLAKKLKKLAKKAL-NH2 [P25] | 8 | 2 | 8 | 16 | 24 | 24 | 16 | 25 µg/mL | 8 | 10 | 5 | 156 | 0.5 | 4 | 2500 | 0.5 | 0.75 | 4 | 64 | 12 | LD50 MCF7 [18]: 10 µg/mL; LD50 BMKC [19]: 36 µg/mL; LD50 SW480 [20]: 12 µg/mL; H1299 LD50 [21]: 37 µg/mL; HeLaS3 LD50 [22]: 20 µg/mL
FAKKLAKKLAKLL-NH2 [P75] | 4 | 16 | 64 | 32 | 80 | 80 | 750 | 50 µg/mL | 8 | 5 | 5 | 624 | 1.25 | 8 | 2500 | 0.75 | 0.75 | 8 | > 128 | 54 | LD50 MCF7 [18]: 42 µg/mL; LD50 BMKC [19]: 24 µg/mL; LD50 SW480 [20]: 17 µg/mL; H1299 LD50 [21]: 80 µg/mL; HeLaS3 LD50 [22]: 74 µg/mL
FALAAKALKKLAKKLKKLAKKAL-NH2 [P23] | 8 | 4 | 16 | 32 | 34 | 34 | 300 | 100 µg/mL | 16 | 5 | 50 | 624 | 1.25 | 8 | 2500 | 0.75 | 0.75 | 16 | 16 | 41 | LD50 MCF7 [18]: 62 µg/mL; LD50 BMKC [19]: 27 µg/mL; LD50 SW480 [20]: 5 µg/mL; H1299 LD50 [21]: 64 µg/mL; HeLaS3 LD50 [22]: 82 µg/mL
FALAKLAKKAKAKLKKALKAL-NH2 [P26] | 4 | 4 | 16 | 32 | 96 | 96 | 90 | > (> indicates greater than 200 μg/mL) | 4 | 10 | 15 | 624 | 1.25 | 8 | 2500 | 0.75 | 0.75 | 4 | > 128 | 125 | LD50 MCF7 [18]: 74 µg/mL; LD50 BMKC [19]: 94 µg/mL; LD50 SW480 [20]: 8 µg/mL; H1299 LD50 [21]: 84 µg/mL; HeLaS3 LD50 [22]: 150 µg/mL
CC(C)C[C@H](NC(=O)[C@H](C)NC(=O)[C@H](CCCCN)NC(=O)[C@H](CCCCN)NC(=O)[C@H](CC(C)C)NC(=O)[C@H](C)NC(=O)[C@H](CCCCN)NC(=O)[C@H](CCCCN)NC(=O)[C@H](CC(C)C)NC(=O)[C@@H](CCCCN)NC(=O)[C@@H](CCCCN)NC(=O)[C@H](CC(C)C)NC(=O)[C@H](C)NC(=O)[C@H](CCCCN)NC(=O)[C@H](CCCCN)NC(=O)[C@H](CC(C)C)NC(=O)[C@H](C)NC(=O)[C@H](CCCCN)NC(=O)[C@H](CC(C)C)NC(=O)[C@H](C)NC(=O)[C@H](CC(C)C)NC(=O)[C@H](C)NC(=O)[C@@H](N)Cc1ccccc1)C(=O)O [P37, FALALKALKKAL-(D)-K-(D)-KLKKALKKAL-COOH] (H-FALALKALKKAL[dK][dK]LKKALKKAL-OH; N-terminus assumed) | 8 | 4 | 16 | 8 | 80 | 80 (≈ 31.5 µM) | 30 | 50 µg/mL | 8 | 5 | 100 | 624 | 1.25 | 4 | 2500 | 0.5 | 0.75 | 4 | 64 | 64 | LD50 MCF7 [18]: 14 µg/mL; LD50 BMKC [19]: 150 µg/mL; LD50 SW480 [20]: 57 µg/mL; H1299 LD50 [21]: 150 µg/mL
